The values that follow come from patent US20080118573A1, “Use of Heavy Metals in the Treatment of Biofilms” (priority 2004, published 2008).

In brackets after ≈: the same amount, converted by molar mass. Several values for one entry are separate records, joined by “and”; a condition that tells them apart may be missing. Equal entries are not always repeated. Where two headings read alike, the source gives them in different places. Marks after values point to notes of the source that are not given here. A value given as a limit tells only on which side of the number the result lay.

In experiment [1] the test system is Escherichia coli JM109 planktonic and biofilm bacteria. Put plainly: MBEC-HTP antibiotic susceptibility, E. coli. The class given is cell-based. Particulars: CA-MHB, 24 h exposure. On the procedure:
(§1) Luria-Bertani medium was chosen for two reasons: 1) its established use in studies of metal resistance, and 2) because of the use of rich media in NCCLS testing protocols for antimicrobial resistance. Antibiotic resistance assays were performed using cation-adjusted Mueller-Hinton broth (CA-MHB, BDH Inc.) and subcultures, MBC and MBEC bacterial counts were performed using trypticase soy agar (TSA, Difco).
(§2) The present study used a novel high throughput method for screening biofilm susceptibility to metal cations and oxyanions: the MBEC device (MBEC Bioproducts Inc., Edmonton, Alberta, Canada, http://www.mbec.ca). The MBEC high throughput (MBEC-HTP) assay system consists of a shallow trough into which a plastic lid with 96 pegs fits. This peg lid also fits over a standard 96-well microtitre plate which can subsequently be used to setup serial dilutions of antimicrobial compounds. The bottom half of the MBEC device is a trough that has shallow channels that direct flow of an inoculated suspension over the pegs on the lid.
(§3) The inoculum was standardized to a 1.0 McFarland standard and verified by viable counts. The 1.0 McFarland standard inoculum was diluted 30-fold with growth media, which served as the growth suspension to inoculate the MBECJ device.
(§4) P. aeruginosa was incubated for 9 h, S. aureus for 24 h and E. coli for 24 h to generate approximately equivalent biofilms of 6.0×10^6 cfu/peg. Following the incubation period, growth of biofilm and planktonic cultures in the MBECJ device were discerned and verified by viable cell counts.
(§5) Chloramphenicol (Sigma) was prepared in 50% ethanol and treated identically to the other antibiotics. 10% ethanol was added to the growth controls for chloramphenicol assays. […] Starting with the working solutions, serial two-fold dilutions were made in the wells of a 96-well plate (the challenge plate), leaving the first well of each row as a sterility control and the second as a growth control (i.e. no antibiotic).

The test system of experiment [2] is Pseudomonas aeruginosa ATCC 27853 planktonic and biofilm bacteria. Put plainly: MBEC-HTP antibiotic susceptibility, P. aeruginosa. It is filed as cell-based. The settings on record: CA-MHB, 24 h exposure. On the procedure:
as §1, §2, §3, §4, §5

The subject of another experiment is P. aeruginosa biofilms. The settings on record: after 100 h of exposure; cited from earlier work.
The test system of experiment [3] is Pseudomonas aeruginosa biofilms. Put plainly: Metal and antibiotic combination assay. The settings on record: for MBC / MIC / MBEC: median of 4 replicates. It is filed as cell-based. On the procedure:
Cells were grown to a mean density of 6.0×10^6 cfu/peg in LB+B1 media.
• 1. […] All data are median values based on 4 replicates.

Experiment [4] relates to Pseudomonas aeruginosa ATCC 27853 planktonic and biofilm cultures. The class given is cell-based. Particulars: for Fold Tolerance (MBEC:MBC100) / MBEC / MBC100: MSVP; for MBEC: biofilm; for MBC100: planktonic.
The subject of experiment [5] is Staphylococcus aureus ATCC 29213 planktonic and biofilm bacteria. The class given is cell-based. The settings on record: LB+B1, 24 h exposure.
Experiment [6] concerns Pseudomonas aeruginosa ATCC 27853 cell populations. It is filed as cell-based.
The subject of experiment [7] is Pseudomonas aeruginosa 15442. Put plainly: Synergy matrix assay of polycide versus metals. It is filed as cell-based.
Experiment [8] relates to Pseudomonas aeruginosa ATCC 27853 planktonic and biofilm bacteria. The class given is cell-based. The settings on record: LB+B1, 24 h exposure.
Experiment [9] concerns Pseudomonas aeruginosa ATCC 27853 planktonic and biofilm cultures. It is filed as cell-based.
Experiment [10] has as its system Escherichia coli JM109 planktonic and biofilm bacteria. The class given is cell-based. The settings on record: LB+B1, 24 h exposure.
Setting [11] is: P. aeruginosa ATCC 27853 biofilm.
Setting [12] is: antibiotic or heavy metal alone, LB+B1.

`NC[C@H]1O[C@H](O[C@H]2[C@H](O)[C@@H](O[C@H]3O[C@H](CO)[C@@H](O)[C@H](N)[C@H]3O)[C@H](N)C[C@@H]2N)[C@H](N)C[C@@H]1O` [Tobramycin]: the MBEC stood at 16 ± 0 µg/mL in experiment [1] (E. coli JM109 biofilm) and 112 ± 32 µg/mL in experiment [2] (setting [11]). The MIC in experiment [1] (Escherichia coli, E. coli JM109, read-out: MIC) worked out at 4 µg/mL (≈ 8.56 µM); in experiment [2] (Pseudomonas aeruginosa, ATCC27853, P. aeruginosa ATCC 27853, read-out: MIC), 14 ± 4 µg/mL (≈ 29.9 µM). Also, the MBC in experiment [1] (Escherichia coli, E. coli JM109 planktonic, read-out: MBC) worked out at 8 µg/mL (≈ 17.1 µM); in [2] (Pseudomonas aeruginosa, ATCC27853, P. aeruginosa ATCC 27853 planktonic, read-out: MBC) it was 28 ± 8 µg/mL (≈ 59.9 µM). The “log10 reduction in viable cell counts of biofilms” value with P. aeruginosa biofilms is recorded as “less than 0.5 log10”.
Take `O=C(O)c1cn(C2CC2)c2cc(N3CCNCC3)c(F)cc2c1=O` [Ciprofloxacin]: the “MBEC in the presence of Cu^2+, times less than the MBEC for the antibiotic alone” value in experiment [3] (200 μg/ml Cu^2+) is reported as “at least 16 times”. In addition, the MBC in experiment [3] (Pseudomonas aeruginosa, antibiotic in combination with 200 μg/ml Cu^2+, read-out: MBC) stood at 8 µg/mL; in [3] (Pseudomonas aeruginosa, antibiotic in combination with 500 μg/ml Zn^2+, read-out: MBC) it was 32 µg/mL; in experiment [3] (Pseudomonas aeruginosa, antibiotic or heavy metal alone, LB+B1, read-out: MBC), 8 µg/mL. Moreover, the MIC in experiment [3] (Pseudomonas aeruginosa, antibiotic in combination with 200 μg/ml Cu^2+, read-out: MIC) is 4 µg/mL; in [3] (Pseudomonas aeruginosa, antibiotic in combination with 500 μg/ml Zn^2+, read-out: MIC), 0.25 to 1 µg/mL. In addition, the MBEC in experiment [3] (antibiotic in combination with 200 μg/ml Cu^2+) was 16** μg/ml; in [3] (antibiotic in combination with 500 μg/ml Zn^2+) it was above 64 µg/mL. For the same molecule, the “log10 reduction in viable cell counts of biofilms” value in the experiment with P. aeruginosa biofilms is below 1.5 log10.
Consider `O=S(=O)([O-])[O-].[Zn+2]` [Zn^2+, zinc sulphate], for which the “Fold Tolerance (MBEC:MBC100)” value was determined as 2.3 in [4] (exposure time 10 h) and 1.0 in experiment [4] (exposure time 27 h). In addition, the MBEC in experiment [4] (exposure time 2 to 8 h) is listed as above 125 mM; in experiment [4] (exposure time 10 h), “≧256 mM”; in [4] (exposure time 27 h) it was 102 ± 47 mM; in experiment [5] (S. aureus ATCC 29213 biofilm), above 125 mM; in experiment [8] (setting [11]), above 125 mM; in experiment [9] (biofilm, LB+B1, exposure time 2 or 27 h), above 125 mM. Also, the MBEC in experiment [3] (setting [12]) was above 8192 µg/mL; in [10] (E. coli JM109 biofilm), 31 ± 0 mM. The MIC in experiment [4] (minimal media (MSVP), did not change with exposure time, mean ± SD of 28 trials) was 9.5 mM and 9.5 ± 3.3 mM; in [5] (S. aureus ATCC 29213), 2.0 ± 0 mM; in experiment [8] (P. aeruginosa ATCC 27853), 78 ± 31 mM; in [9] (rich media (LB+B1), 4 replicates), 78 ± 31 mM; in experiment [3] (setting [12]), 4096 µg/mL; in experiment [10] (E. coli JM109), 2.2 ± 0.7 mM. In addition, the MBC100 in experiment [4] (exposure time 2 to 8 h) was above 125 mM; in experiment [4] (exposure time 10 h) it was 109 ± 31 mM; in experiment [4] (exposure time 27 h) it was 102 ± 47 mM; in experiment [9] (planktonic, LB+B1, exposure time 2 or 27 h), above 125 mM. Also, the MBC in [5] (S. aureus ATCC 29213 planktonic) was above 125 mM; in experiment [8] (P. aeruginosa ATCC 27853 planktonic) it was above 125 mM; in experiment [3] (setting [12]), above 8192 µg/mL; in [10] (E. coli JM109 planktonic) it was 31 ± 0 mM. The biofilm killed in experiment [6] (2 h exposure, FIG. 2 Panel A) is on record as 90-99%. Also, the “concentration tolerated by the surviving population” value in experiment [6] (less than 0.1% survival of biofilm and planktonic cell populations) is on record as above 125 mM. The “synergistic effect on polycide activity” value in experiment [7] is on record as “did not appear to have any synergistic effect”.
